Holding throughout (experiment): NCI-60 cell line screen, 48 h
The test system of assay [1] is 786-0 renal.
In assay [2] the test system is CCRF-CEM leukemia.
Assay [3] concerns EKVX NSCLC.
Assay [4] relates to HCC-2998 colon.
For assay [5], the system named is HL-60(TB) leukemia.
The subject of assay [6] is HOP-62 NSCLC.
The test system of assay [7] is K-562 leukemia.
Assay [8] relates to LOX IMVI melanoma.
Assay [9] deals with M14 melanoma.
Assay [10] relates to MALME-3M melanoma.
The test system of assay [11] is MCF7 breast.
The subject of assay [12] is MDA-MB-231 breast.
Assay [13] concerns MDA-MB-435.
Assay [14] relates to MDA-N.
In assay [15] the test system is OVCAR-5 ovarian.
The subject of assay [16] is RXF 393 renal.
In assay [17] the test system is SNB-19 CNS.
Assay [18] relates to SW-620 colon.
For assay [19], the system named is T-47D breast.
Assay [20] concerns TK-10 renal.

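Protocol summary: plate cells (96-well), add compound at 5 concentrations, incubate 48 h, interpolate endpoints linearly. TGI: total growth inhibition.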 Some results are limits rather than exact numbers.

Consider `COc1nc2c(c(=O)n1C)NC(C(O)C(O)CO)C=N2` (stereo not given), for which the TGI in [1], in [2], in assay [3], in assay [4], in assay [5] and in [6] was more than 10 µM throughout. Moreover, the TGI in assay [7], in assay [8], in assay [9], in assay [10], in [11] and in assay [12] was more than 10 µM throughout. Besides, the TGI in assay [13], in assay [14], in assay [15], in [16], in assay [17] and in assay [18] was more than 10 µM each time. The TGI in assay [19] and in assay [20] was more than 10 µM each time.

As to `O=C1/C(=C\c2c(-c3ccccc3)nn(-c3ccccc3)c2O)C(c2ccccc2)=NN1c1ccccc1`, the TGI in [1], in [2], in assay [3], in assay [4], in [5] and in [6] was more than 100 µM throughout. For the same compound, the TGI in assay [7], in assay [8], in assay [9], in [10], in assay [11] and in [12] was more than 100 µM throughout. Moreover, the TGI in assay [13], in assay [14], in assay [15], in [16], in [17] and in [18] was more than 100 µM in each case. For the same compound, the TGI in [19] and in assay [20] was more than 100 µM each time.

As to `Cc1cc(-c2nc3cc(F)ccc3s2)ccc1NC(=O)C(C)N` (stereo not given), the TGI is 7.2 µM in assay [1]; 3.25 µM in assay [2]; 7.03 µM in [3]; 3.57 µM in [4]; 1.34 µM in [5]; 8.32 µM in [6]. For the same compound, the TGI in assay [7] turned out to be 14.5 µM; in assay [8], 10.1 µM; in assay [9], 9.74 µM; in assay [10] it was 25 µM; in assay [11] it was 2.7 µM; in assay [12] it was 7.7 µM. For the same compound, the TGI came to 10.5 µM in [13]; 8.13 µM in assay [14]; 5.52 µM in assay [15]; 8.33 µM in [16]; 9.63 µM in assay [17]; 9.77 µM in assay [18]. Also, the TGI was determined as 6.35 µM in [19] and 2.93 µM in assay [20].

For `c1ccc2nc3cc4c(cc3nc2c1)NC12CCCCC1CC1=C(CCCC1)N42` (stereo not given), the TGI in assay [1] is more than 10 µM; in assay [2] it was 4.9 µM; in [3], more than 10 µM; in [4], more than 10 µM; in assay [5], 8.31 µM; in [6] it was more than 10 µM. Besides, the TGI in assay [7] is 5.5 µM; in assay [8], more than 10 µM; in [9] it was 6.35 µM; in assay [10], 5.33 µM; in assay [11], more than 10 µM; in [12], more than 10 µM. Further, the TGI in assay [13] is 3.9 µM; in assay [14] it was 7.06 µM; in assay [15], more than 10 µM; in assay [16] it was 6.3 µM; in assay [17], more than 10 µM; in assay [18], more than 10 µM. The TGI in assay [19] and in assay [20] was more than 10 µM in each case.

Turning to `NC(N)=NS(=O)(=O)c1ccc(NNc2c3ccccc3nc3c(C(=O)Nc4ccc(S(N)(=O)=O)cc4)cccc23)cc1`, the TGI was more than 100 µM in assay [1]; 88.7 µM in assay [2]; more than 100 µM in assay [3]; more than 100 µM in assay [4]; 77.9 µM in assay [5]; more than 100 µM in assay [6]. Further, the TGI in assay [7] is 69.9 µM; in assay [8], 29.4 µM; in assay [9] it was more than 100 µM; in assay [10], more than 100 µM; in assay [11] it was 70.5 µM; in assay [12], more than 100 µM. Also, the TGI in assay [13], in assay [14], in [15], in assay [16], in [17] and in assay [18] was more than 100 µM in each case. For the same compound, the TGI in assay [19] and in [20] was more than 100 µM throughout.

On to `CNC(=O)OCCN1c2ccccc2Sc2ccccc21`, for which the TGI in [1] was more than 100 µM; in assay [2] it was more than 100 µM; in assay [3], more than 100 µM; in assay [4], more than 100 µM; in [5], more than 100 µM; in assay [6], 89.2 µM. In addition, the TGI is more than 100 µM in [7]; more than 100 µM in assay [8]; more than 100 µM in [9]; more than 100 µM in [10]; more than 100 µM in [11]; 89.5 µM in assay [12]. Besides, the TGI is more than 100 µM in assay [13]; more than 100 µM in [14]; more than 100 µM in assay [15]; 99.2 µM in assay [16]; more than 100 µM in assay [17]; more than 100 µM in [18]. In addition, the TGI in assay [19] and in assay [20] was more than 100 µM each time.

On to `COc1ccc2c(c1)c1c3c(ccc4ncn2c43)N(CCN(C)C)CCN=1`, for which the TGI came out at 1.3 µM in assay [1]; 1.09 µM in assay [2]; 2.71 µM in assay [3]; 1.35 µM in assay [4]; 1.1 µM in assay [5]; 1.73 µM in assay [6]. The TGI in assay [7] is 0.705 µM; in assay [8], 1.53 µM; in assay [9] it was 2.41 µM; in [10], 2.67 µM; in assay [11] it was 1.91 µM; in [12], 1.76 µM. Also, the TGI amounted to 1.76 µM in [13]; 1.59 µM in assay [14]; 2.83 µM in [15]; 2.85 µM in [16]; 1.96 µM in assay [17]; 2.13 µM in [18]. Besides, the figures for the TGI in [19] and in [20] were 6.05 µM and 5.73 µM, respectively.

The record behind these values is PubChem BioAssay (NCI).
